Legend:
[1] = Ice recrystallisation inhibition (IRI) modified splat assay; assay type: physicochemical; conditions: at these concentrations (1-10 mg·mL^-1)
Description: Determination of RI activity was achieved using a modified “splat” assay. A 10 μL droplet of the analyte solution in PBS was expelled at a fixed height of 2 m onto a glass coverslip placed upon a pre-cooled (CO2(s)) aluminium plate. This was immediately transferred onto the pre-cooled microscope stage (−6° C.) and left to anneal for 30 minutes. Photographs of the wafer were taken at both 0 and 30 minutes through crossed polarizers. A large number of the ice crystals (30+) were then measured to find the largest grain size dimension along any axis. The average largest value from 3 individual photographs was calculated to give the mean largest grain size (MLGS). Reported errors are the coefficient of variation (standard deviation/mean) from a minimum of 3 individual data sets. Values are reported as the MLGS relative to that obtained for PBS alone.
A polynucleated wafer of ice crystals (each ice crystal is <30 μm) was made from phosphate buffered saline (PBS) solutions of the additive being investigated. Following annealing at −6° C. for 30 minutes, the wafers were imaged through crossed polarisers and the size of the crystals measured. In addition to PVA, two common biocompatible polymers were also assessed for IRI activity; dextran and poly(ethylene glycol) (PEG, FIG. 1C), as they are both commonly added to cryopreservative solutions.

erythrocytes = assay: Cryoprotectant haemocompatibility / cytotoxicity (haemolysis of erythrocytes); assay type: cell-based, ovine
Description: A 40 μL aliquot of the thawed erythrocyte solution was added to 400 μL PBS and centrifuged (1000×g, 5 min, 4° C.) to remove intact cells. 50 μL of the supernatant was added to 150 μL PBS in a 96-well plate and an absorbance measurement at 450 nm recorded to assess the extent of haemoglobin leakage. 100% haemolysis samples were prepared by osmotic shock through addition of 500 μL H2O to 500 μL erythrocytes suspension and the sample was vortexed vigorously. Control (0% haemolysis) samples were prepared by the addition of 500 μL PBS to 500 μL erythrocytes and left at room temperature (25° C.) for 60 minutes. All measurements were repeated a minimum of 5 times and the reported errors are the coefficient of variation (standard deviation/mean).
Erythrocytes were prepared as described above. A 500 μL aliquot of erythrocytes was added to 500 μL of the polymer or DMSO in PBS and mixed by inversion. The samples were incubated at 25° C. for 120 minutes before analysis. Haemolysis was measured in the same method as used for cryopreservation studies (above). All measurements were repeated in triplicate.
Fresh ovine (defibrinated) erythrocytes were prepared in an identical manner as aforementioned. Samples were prepared in triplicate. A 500 μL aliquot of erythrocytes was added to 500 μL 2× final concentration cryoprotectant in PBS and mixed by inversion. The samples were incubated at room temperature for 120 minutes before analysis. […] This is in contrast to some examples that defined toxicity only at levels exceeding 10% haemolysis. Concentrations higher than this were not deemed necessary for assessment.

| SMILES | IRI activity of common vitrification solvents [1] | concentration above which significant haemolysis was observed (erythrocytes; 120 minutes at 25° C.) | concentration above which significant haemolysis was observed (erythrocytes; 120 minutes at room temperature, significant haemolysis >5%) | haemolytic property of common cryoprotectant (erythrocytes; general statement) |
| --- | --- | --- | --- | --- |
| C[S+](C)[O-] [DMSO, dimethylsulfoxide] | little or no IRI activity | Above 1.5 w/v % | Above 1.5 wt % | strongly haemolytic |
| OCC(O)CO [glycerol] | little or no IRI activity |  |  |  |
